# Source: patent publication US8304412B2, “Cyclically substituted 3,5-dicyano-2-thiopyridines and use thereof” (Bayer Intellectual Property GmbH, priority 2006, dated 2012)
# What was measured:
# Type in all cases: cell-based
# adenosine A1 receptor = molecular target: T1, adenosine A1 receptor (Homo sapiens, UniProt P30542); test: Indirect determination of adenosine agonism by gene expression (luciferase), A1 cells; conditions: 1 μM forskolin; stably transfected CHO cells; 50% inhibition of luciferase answer
# T1 construct: expressed in transfected cells; host or cells: CHO (Chinese Hamster Ovary)
# T1 sequence (P30542 1-326): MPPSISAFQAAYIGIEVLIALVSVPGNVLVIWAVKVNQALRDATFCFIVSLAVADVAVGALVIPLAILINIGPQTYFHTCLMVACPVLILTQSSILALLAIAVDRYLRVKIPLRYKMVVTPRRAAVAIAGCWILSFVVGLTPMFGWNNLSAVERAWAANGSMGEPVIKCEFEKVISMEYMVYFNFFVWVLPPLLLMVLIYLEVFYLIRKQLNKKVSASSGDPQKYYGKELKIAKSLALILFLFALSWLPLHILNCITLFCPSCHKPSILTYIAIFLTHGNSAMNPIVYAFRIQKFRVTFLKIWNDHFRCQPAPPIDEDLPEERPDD
# Description: (§1) B-1. Indirect Determination of the Adenosine Agonism by Way of Gene Expression
# (§2) Cells of the CHO (Chinese Hamster Ovary) permanent cell line are transfected stably with the cDNA for the adenosine receptor subtypes A1, A2a and A2b. The adenosine A1 receptors are coupled to the adenylate cyclase by way of Gi proteins, while the adenosine A2a and A2b receptors are coupled by way of Gs proteins. In correspondence with this, the formation of cAMP in the cell is inhibited or stimulated, respectively. After that, expression of the luciferase is modulated by way of a cAMP-dependent promoter. The luciferase test is optimized, with the aim of high sensitivity and reproducibility, low variance and good suitability for implementation on a robot system, by varying several test parameters, such as cell density, duration of the growth phase and the test incubation, forskolin concentration and medium composition. The following test protocol is used for pharmacologically characterizing cells and for the robot-assisted substance screening:
# (§3) The stock cultures are grown, at 37° C. and under 5% CO2, in DMEM/F12 medium containing 10% FCS (fetal calf serum) and in each case split 1:10 after 2-3 days. The test cultures are seeded in 384-well plates with 2000 cells per well and grown at 37° C. for approx. 48 hours. The medium is then replaced with a physiological sodium chloride solution (130 mM sodium chloride, 5 mM potassium chloride, 2 mM calcium chloride, 20 mM HEPES, 1 mM magnesium chloride hexahydrate, 5 mM sodium bicarbonate, pH 7.4). The substances to be tested, which are dissolved in DMSO, are pipetted into the test cultures (maximum final concentration of DMSO in the test mixture: 0.5%) in a dilution series of from 5×10^−11M to 3×10^−6M (final concentration). 10 minutes later, forskolin is added to the A1 cells and all the cultures are subsequently incubated at 37° C. for four hours. After that, 35 μl of a solution which is composed of 50% lysis reagent (30 mM disodium hydrogenphosphate, 10% glycerol, 3% TritonX100, 25 mM TrisHCl, 2 mM dithiotreitol (DTT), pH 7.8) and 50% luciferase substrate solution (2.5 mM ATP, 0.5 mM luciferin, 0.1 mM coenzyme A, 10 mM tricine, 1.35 mM magnesium sulfate, 15 mM DTT, pH 7.8) are added to the test cultures, which are shaken for approx. 1 minute and the luciferase activity is measured using a camera system. The EC50 values are determined, i.e., the concentrations at which 50% of the luciferase answer is inhibited in the case of the A1 cell, and, respectively, 50% of the maximum stimulation with the corresponding substance is achieved in the case of the A2b and A2a cells. […] Pharmacol., 357 (1998), 1-9).
# (§4) Table 1 below lists the EC50 values of representative working examples for the receptor stimulation on adenosine A1, A2a and A2b receptor subtypes: […]
# adenosine A2b receptor = molecular target: T2, adenosine A2b receptor (Homo sapiens, UniProt P29275); test: Indirect determination of adenosine agonism by gene expression (luciferase), A2b cells; conditions: stably transfected CHO cells; 50% of maximum luciferase stimulation
# T2 construct: expressed in transfected cells; host or cells: CHO (Chinese Hamster Ovary)
# T2 sequence (P29275 1-332): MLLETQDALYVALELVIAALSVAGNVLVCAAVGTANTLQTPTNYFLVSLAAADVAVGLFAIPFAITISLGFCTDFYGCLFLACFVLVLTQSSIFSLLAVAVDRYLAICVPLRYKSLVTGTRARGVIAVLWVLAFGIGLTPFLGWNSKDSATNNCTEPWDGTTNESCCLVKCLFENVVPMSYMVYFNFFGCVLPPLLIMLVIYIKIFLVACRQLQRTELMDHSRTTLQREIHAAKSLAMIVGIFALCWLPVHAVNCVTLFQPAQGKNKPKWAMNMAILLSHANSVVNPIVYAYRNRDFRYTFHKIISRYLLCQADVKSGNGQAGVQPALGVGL
# Description: as §1, §2, §3, §4
# adenosine A2a receptor = molecular target: T3, adenosine A2a receptor (Homo sapiens, UniProt P29274); test: Indirect determination of adenosine agonism by gene expression (luciferase), A2a cells; conditions: stably transfected CHO cells; 50% of maximum luciferase stimulation
# T3 construct: expressed in transfected cells; host or cells: CHO (Chinese Hamster Ovary)
# T3 sequence (P29274 whole entry): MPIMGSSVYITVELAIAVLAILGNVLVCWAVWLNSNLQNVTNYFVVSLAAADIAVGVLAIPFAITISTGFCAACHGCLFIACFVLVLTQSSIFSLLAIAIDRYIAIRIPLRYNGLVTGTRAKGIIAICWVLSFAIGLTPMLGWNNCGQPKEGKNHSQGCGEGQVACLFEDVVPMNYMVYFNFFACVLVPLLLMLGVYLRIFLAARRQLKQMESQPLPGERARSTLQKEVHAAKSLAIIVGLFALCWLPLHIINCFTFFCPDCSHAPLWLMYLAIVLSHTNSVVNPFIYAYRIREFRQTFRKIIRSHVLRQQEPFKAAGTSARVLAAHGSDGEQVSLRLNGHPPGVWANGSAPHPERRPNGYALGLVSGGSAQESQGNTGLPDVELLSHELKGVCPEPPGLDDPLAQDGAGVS
# Description: as §1, §2, §3, §4
Compound,EC50 (adenosine A1 receptor) [nM],EC50 (adenosine A2b receptor) [nM],EC50 (adenosine A2a receptor) [nM]
"N#Cc1cnc(SCc2csc(-c3ccc(C(=O)O)cc3)n2)c(C#N)c1C1CCCOC1 (racemic) [Example 65, rac-4-[4-({[3,5-Dicyano-4-(tetrahydro-2H-pyran-3-yl)pyridin-2-yl]sulfanyl}methyl)-1,3-thiazol-2-yl]benzoic acid]",9.5,860,> 3000
"N#Cc1c(N)nc(SCc2csc(-c3ccc(C(=O)O)cc3)n2)c(C#N)c1C1CCCCO1 (single isomer, unassigned) [Example 23]",0.4,75,620
"Cc1nc(SCc2csc(-c3ccc(C(=O)O)cc3)n2)c(C#N)c(C2CCCCO2)c1C#N (single isomer, unassigned; (+)) [Example 56, (+)-4-[4-({[3,5-Dicyano-6-methyl-4-(tetrahydro-2H-pyran-2-yl)pyridin-2-yl]sulfanyl}methyl)-1,3-thiazol-2-yl]benzoic acid]",0.8,51,> 3000
"N#Cc1c(N)nc(SCc2csc(-c3ccc(C(=O)O)cc3)n2)c(C#N)c1C1CCCOC1 (single isomer, unassigned; (+)) [Example 62, (+)-4-[4-({[6-Amino-3,5-dicyano-4-(tetrahydro-2H-pyran-3-yl)pyridin-2-yl]sulfanyl}methyl)-1,3-thiazol-2-yl]benzoic acid]",0.06,> 3000,> 3000
"N#Cc1c(N)nc(SCc2csc(-c3ccc(Cl)cc3)n2)c(C#N)c1C1CCN(C(=O)CO)CC1 [Example 9, 2-Amino-6-({[2-(4-chlorophenyl)-1,3-thiazol-4-yl]methyl}thio)-4-(1-glycoloylpiperidin-4-yl)-pyridine-3,5-dicarbonitrile]",8.9,791,> 3000
CN1CCN(CCCNc2nc(SCc3csc(-c4ccc(Cl)cc4)n3)c(C#N)c(C3CCCCC3)c2C#N)CC1 [Example 35],68,> 3000,1470
N#Cc1c(N)nc(SCc2cccc(C(=O)O)c2)c(C#N)c1C1CCCCO1 (stereo not drawn) [Example 51],6.8,> 3000,> 3000
"N#Cc1c(N)nc(SCc2coc(-c3ccc(Cl)cc3)n2)c(C#N)c1C1CCCOC1 (stereo not drawn) [Example 58, 2-Amino-6-({[2-(4-chlorophenyl)-1,3-oxazol-4-yl]methyl}sulfanyl)-4-(tetrahydro-2H-pyran-3-yl)-pyridine-3,5-dicarbonitrile]",11,950,> 3000
N#Cc1c(N)nc(SCc2cccc(C(N)=O)c2)c(C#N)c1C1CCCCC1 [Example 70],0.08,22,224
N#Cc1c(N)nc(SCc2coc(-c3ccc(F)c(Cl)c3)n2)c(C#N)c1[C@H]1CC[C@@H](O)CC1 [Example 78],17,> 3000,> 3000

# Further lines, results first:
EC50 (adenosine A1 receptor) [nM],EC50 (adenosine A2b receptor) [nM],EC50 (adenosine A2a receptor) [nM],Compound
10,670,380,"N#Cc1c(N)nc(SCc2csc(-c3ccc(Cl)cc3)n2)c(C#N)c1C1CCCCO1 (single isomer, unassigned; ent-2) [Example 15, ent-2-Amino-6-({[2-(4-chlorophenyl)-1,3-thiazol-4-yl]methyl}thio)-4-(tetrahydro-2H-pyran-2-yl)-pyridine-3,5-dicarbonitrile]"
0.8,558,1260,"N#Cc1c(N)nc(SCc2csc(-c3ccc(Cl)cc3)n2)c(C#N)c1[C@H]1CC[C@H](O)CC1 [Example 3, 2-Amino-6-({[2-(4-chlorophenyl)-1,3-thiazol-4-yl]methyl}thio)-4-(trans-4-hydroxycyclohexyl)-pyridine-3,5-dicarbonitrile]"
2.9,320,1100,N#Cc1c(N)nc(SCc2csc(-c3ccc(Cl)cc3)n2)c(C#N)c1[C@H]1CC[C@@H](O)CC1 [Example 4]
3.8,345,> 3000,"N#Cc1c(N)nc(SCc2csc(-c3ccc(Cl)cc3)n2)c(C#N)c1C1CCCCC1 [Example 29, 2-Amino-6-({[2-(4-chlorophenyl)-1,3-thiazol-4-yl]methyl}thio)-4-cyclohexylpyridine-3,5-dicarbonitrile]"
106,> 3000,> 3000,Cc1sc(-c2ccc(Cl)cc2)nc1CSc1nc(N)c(C#N)c(C2CCCCC2)c1C#N [Example 76]
